Measured values from article PMC7316778 (Nature Communications, 2020).
“And” between values parts separate entries of the source, which are not always exact repeats. Identical values can stand only once. Like-named read-outs stand apart in the source and are kept apart here.

Legend:
[1] = tested on: FES^S700C HL-60 cells; experiment: CD11b surface expression, neutrophil differentiation; type: cell-based, human; details: 100 nM; Supplementary Figure 12c; individual replicates; listed as WEL028
[2] = target: AURKB (Aurora B) (Homo sapiens, UniProt Q96GD4); experiment: SelectScreen kinase assay
Method: (§1) Selectivity profiling assays were performed by the Invitrogen SelectScreen™ Services. […] The concentration of ATP was selected to be equal to the KM, unless indicated otherwise.

[3] = target: CDC42 BPG (MRCKG) (Homo sapiens, UniProt Q6DT37); experiment: SelectScreen kinase assay
Method: as §1

[4] = target: EGFR (ErbB1) (Homo sapiens, UniProt P00533); experiment: SelectScreen kinase assay
Method: as §1

[5] = target: T1, EPHA3 (Homo sapiens, UniProt P29320); experiment: SelectScreen kinase assay
T1 sequence (P29320 21-983): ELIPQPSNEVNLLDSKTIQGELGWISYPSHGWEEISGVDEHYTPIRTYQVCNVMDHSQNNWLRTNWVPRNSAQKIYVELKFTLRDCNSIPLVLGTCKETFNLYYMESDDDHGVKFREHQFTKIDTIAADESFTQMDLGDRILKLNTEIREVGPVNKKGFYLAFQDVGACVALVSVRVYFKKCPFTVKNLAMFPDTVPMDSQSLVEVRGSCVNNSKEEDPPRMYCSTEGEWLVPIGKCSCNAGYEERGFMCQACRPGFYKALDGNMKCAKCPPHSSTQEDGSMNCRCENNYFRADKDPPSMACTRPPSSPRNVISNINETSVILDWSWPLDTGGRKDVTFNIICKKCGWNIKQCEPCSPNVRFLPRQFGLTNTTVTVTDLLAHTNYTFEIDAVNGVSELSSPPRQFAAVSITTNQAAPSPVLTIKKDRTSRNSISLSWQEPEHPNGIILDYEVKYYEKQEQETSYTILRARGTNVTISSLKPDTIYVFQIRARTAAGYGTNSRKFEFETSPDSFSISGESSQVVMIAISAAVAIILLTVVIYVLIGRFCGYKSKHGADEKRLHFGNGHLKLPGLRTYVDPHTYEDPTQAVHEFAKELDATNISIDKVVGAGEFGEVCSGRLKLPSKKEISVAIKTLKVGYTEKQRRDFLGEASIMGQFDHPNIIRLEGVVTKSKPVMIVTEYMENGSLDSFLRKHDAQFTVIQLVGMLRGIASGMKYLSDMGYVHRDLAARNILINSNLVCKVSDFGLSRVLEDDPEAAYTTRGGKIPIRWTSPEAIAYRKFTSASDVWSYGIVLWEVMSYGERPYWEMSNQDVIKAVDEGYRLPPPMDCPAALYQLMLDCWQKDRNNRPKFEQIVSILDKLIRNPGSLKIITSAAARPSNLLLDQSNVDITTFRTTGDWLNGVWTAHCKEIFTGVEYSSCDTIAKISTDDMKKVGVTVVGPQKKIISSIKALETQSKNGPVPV
Method: as §1

[6] = target: MAP3K10 (MLK2) (Homo sapiens, UniProt Q02779); experiment: SelectScreen kinase assay
Method: as §1

[7] = target: MAP3K11 (MLK3) (Homo sapiens, UniProt Q16584); experiment: SelectScreen kinase assay
Method: as §1

[8] = target: PI4KA (PI4K alpha) (Homo sapiens, UniProt P42356); experiment: SelectScreen kinase assay
Method: as §1

[9] = target: PRKCB2 (PKC beta II) (Homo sapiens, UniProt P05771); experiment: SelectScreen kinase assay; details: 1 h, 1 μM WEL028, 1 h preincubation
Method: as §1

[10] = target: T2, PRKD2 (PKD2) (Homo sapiens, UniProt Q9BZL6); experiment: SelectScreen kinase assay; details: for Inhibition at 1 µM (%): ZLYTE, ATP Km app
T2 sequence (Q9BZL6 1-878): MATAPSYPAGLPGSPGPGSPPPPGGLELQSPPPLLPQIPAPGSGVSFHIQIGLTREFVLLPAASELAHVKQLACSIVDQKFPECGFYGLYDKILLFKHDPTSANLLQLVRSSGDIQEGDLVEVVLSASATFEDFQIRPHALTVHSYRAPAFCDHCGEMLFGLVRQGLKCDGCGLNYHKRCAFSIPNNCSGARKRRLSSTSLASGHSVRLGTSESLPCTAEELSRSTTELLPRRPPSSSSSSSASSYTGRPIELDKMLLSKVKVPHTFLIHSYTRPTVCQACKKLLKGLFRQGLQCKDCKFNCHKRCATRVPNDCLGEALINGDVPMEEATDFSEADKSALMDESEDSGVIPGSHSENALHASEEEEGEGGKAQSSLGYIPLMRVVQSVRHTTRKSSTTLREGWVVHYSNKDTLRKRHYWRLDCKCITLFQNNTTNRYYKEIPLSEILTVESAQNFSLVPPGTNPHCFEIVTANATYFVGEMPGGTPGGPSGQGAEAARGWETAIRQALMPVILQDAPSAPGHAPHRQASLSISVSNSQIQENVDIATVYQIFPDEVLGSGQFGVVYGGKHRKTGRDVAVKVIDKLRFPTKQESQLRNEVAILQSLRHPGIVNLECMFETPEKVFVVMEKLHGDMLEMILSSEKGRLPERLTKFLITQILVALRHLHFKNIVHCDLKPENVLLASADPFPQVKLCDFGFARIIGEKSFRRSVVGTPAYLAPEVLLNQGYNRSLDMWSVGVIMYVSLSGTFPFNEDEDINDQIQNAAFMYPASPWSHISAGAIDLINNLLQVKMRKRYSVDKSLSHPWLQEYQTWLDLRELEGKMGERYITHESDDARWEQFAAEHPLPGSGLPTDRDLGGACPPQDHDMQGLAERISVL
Method: as §1

[11] = target: SRC (Homo sapiens, UniProt P12931); experiment: SelectScreen kinase assay
Method: as §1

[12] = target: TLK1 (Homo sapiens, UniProt Q9UKI8); experiment: SelectScreen kinase assay
Method: as §1

[13] = 1 h, 1 μM WEL028, 1 h preincubation

SRC, sequence (P12931 whole entry): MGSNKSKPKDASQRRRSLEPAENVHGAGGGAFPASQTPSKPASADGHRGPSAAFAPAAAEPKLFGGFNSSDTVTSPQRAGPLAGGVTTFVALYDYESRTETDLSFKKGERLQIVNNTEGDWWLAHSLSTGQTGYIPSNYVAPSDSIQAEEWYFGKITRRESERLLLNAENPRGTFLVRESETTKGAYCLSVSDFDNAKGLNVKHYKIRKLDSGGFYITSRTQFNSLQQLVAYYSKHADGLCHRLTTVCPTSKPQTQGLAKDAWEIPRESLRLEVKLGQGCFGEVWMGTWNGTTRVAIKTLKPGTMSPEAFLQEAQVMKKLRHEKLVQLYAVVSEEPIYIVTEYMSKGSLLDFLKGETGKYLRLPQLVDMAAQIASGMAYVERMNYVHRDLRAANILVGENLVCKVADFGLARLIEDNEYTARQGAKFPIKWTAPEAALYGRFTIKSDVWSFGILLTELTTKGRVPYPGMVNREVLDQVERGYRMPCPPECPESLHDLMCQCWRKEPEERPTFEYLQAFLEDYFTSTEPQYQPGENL
MAP3K10 (MLK2), sequence (Q02779 whole entry): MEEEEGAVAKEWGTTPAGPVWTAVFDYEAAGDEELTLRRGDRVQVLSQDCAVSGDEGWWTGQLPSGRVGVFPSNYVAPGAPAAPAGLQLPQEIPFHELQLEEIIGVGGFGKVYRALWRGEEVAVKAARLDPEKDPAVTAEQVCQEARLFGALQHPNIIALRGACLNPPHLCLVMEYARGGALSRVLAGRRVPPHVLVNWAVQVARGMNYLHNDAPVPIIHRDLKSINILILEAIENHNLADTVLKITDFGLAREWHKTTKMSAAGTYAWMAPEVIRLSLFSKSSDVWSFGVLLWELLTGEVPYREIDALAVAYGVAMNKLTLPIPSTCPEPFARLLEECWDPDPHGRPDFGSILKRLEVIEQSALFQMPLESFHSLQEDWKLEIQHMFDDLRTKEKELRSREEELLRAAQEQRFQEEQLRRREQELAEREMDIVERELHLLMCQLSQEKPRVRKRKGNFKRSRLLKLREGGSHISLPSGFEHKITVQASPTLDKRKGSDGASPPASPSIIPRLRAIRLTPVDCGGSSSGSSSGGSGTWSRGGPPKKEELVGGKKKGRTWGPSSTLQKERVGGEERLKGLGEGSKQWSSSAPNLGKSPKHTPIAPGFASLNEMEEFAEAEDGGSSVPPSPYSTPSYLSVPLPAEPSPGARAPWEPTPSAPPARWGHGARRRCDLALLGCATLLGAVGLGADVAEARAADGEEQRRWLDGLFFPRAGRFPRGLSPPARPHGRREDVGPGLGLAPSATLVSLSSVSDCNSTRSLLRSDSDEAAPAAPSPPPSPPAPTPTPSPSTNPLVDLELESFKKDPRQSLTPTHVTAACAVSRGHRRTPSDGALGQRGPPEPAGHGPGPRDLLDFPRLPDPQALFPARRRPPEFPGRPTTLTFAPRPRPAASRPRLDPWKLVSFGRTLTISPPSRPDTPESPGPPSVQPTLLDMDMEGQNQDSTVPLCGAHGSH
AURKB (Aurora B), sequence (Q96GD4 whole entry): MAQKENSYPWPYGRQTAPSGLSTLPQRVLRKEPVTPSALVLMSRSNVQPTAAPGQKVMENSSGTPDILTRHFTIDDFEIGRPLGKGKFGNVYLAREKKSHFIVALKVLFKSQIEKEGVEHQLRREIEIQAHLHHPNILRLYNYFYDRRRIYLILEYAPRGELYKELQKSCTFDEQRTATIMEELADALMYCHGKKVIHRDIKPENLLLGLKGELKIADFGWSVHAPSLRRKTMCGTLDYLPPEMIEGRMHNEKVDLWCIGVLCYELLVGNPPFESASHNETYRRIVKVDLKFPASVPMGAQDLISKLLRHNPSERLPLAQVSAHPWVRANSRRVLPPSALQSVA
PI4KA (PI4K alpha), sequence (P42356 whole entry): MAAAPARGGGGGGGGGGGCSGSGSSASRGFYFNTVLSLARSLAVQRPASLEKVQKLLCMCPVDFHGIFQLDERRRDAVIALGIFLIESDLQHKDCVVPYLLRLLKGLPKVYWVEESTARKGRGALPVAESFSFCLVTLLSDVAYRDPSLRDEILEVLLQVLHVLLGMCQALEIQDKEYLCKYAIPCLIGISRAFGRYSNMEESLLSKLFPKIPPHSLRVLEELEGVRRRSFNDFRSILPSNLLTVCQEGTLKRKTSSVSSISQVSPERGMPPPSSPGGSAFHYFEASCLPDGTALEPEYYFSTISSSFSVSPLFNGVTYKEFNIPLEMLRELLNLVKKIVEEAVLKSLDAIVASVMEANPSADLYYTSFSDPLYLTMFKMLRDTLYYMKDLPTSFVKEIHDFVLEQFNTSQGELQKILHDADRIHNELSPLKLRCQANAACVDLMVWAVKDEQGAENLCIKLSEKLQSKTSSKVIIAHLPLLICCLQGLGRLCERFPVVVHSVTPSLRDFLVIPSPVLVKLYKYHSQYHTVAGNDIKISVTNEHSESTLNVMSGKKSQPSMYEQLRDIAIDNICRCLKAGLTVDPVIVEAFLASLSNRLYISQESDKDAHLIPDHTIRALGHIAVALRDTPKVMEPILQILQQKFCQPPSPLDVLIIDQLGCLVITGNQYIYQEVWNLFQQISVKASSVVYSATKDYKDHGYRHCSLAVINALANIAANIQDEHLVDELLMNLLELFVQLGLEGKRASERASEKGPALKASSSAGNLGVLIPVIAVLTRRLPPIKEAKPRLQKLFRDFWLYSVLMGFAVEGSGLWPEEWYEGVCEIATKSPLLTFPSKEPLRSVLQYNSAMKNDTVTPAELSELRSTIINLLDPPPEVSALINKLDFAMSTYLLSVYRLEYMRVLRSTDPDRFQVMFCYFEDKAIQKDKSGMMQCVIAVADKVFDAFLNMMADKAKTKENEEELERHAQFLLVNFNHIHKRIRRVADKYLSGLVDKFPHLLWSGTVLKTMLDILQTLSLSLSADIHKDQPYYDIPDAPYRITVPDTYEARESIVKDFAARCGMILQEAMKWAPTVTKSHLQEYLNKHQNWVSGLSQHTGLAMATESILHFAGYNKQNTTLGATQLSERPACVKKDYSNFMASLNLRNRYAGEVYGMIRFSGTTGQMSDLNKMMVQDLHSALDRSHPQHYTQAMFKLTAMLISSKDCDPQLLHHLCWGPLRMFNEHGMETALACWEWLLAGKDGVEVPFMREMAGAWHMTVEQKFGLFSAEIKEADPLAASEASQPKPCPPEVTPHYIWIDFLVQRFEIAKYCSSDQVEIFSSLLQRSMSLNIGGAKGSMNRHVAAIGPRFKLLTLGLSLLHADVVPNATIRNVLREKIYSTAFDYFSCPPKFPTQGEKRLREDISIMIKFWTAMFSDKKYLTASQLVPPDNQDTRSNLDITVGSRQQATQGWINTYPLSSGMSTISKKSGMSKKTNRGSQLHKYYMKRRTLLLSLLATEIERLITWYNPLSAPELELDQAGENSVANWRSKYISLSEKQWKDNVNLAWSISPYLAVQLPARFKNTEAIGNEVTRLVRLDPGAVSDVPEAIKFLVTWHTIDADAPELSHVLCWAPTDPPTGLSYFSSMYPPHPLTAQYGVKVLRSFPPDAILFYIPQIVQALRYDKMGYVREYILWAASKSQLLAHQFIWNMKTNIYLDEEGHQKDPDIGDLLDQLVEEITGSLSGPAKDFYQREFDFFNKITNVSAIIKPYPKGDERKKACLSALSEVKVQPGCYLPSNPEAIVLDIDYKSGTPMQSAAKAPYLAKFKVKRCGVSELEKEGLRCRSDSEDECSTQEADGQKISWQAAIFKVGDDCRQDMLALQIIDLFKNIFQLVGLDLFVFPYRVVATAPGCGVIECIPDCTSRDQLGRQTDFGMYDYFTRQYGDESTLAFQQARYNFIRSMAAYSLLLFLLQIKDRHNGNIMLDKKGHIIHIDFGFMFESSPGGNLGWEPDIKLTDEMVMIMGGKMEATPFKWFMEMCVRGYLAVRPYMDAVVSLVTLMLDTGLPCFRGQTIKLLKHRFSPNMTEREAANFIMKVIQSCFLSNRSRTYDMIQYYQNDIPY
EGFR (ErbB1), sequence (P00533 25-1210): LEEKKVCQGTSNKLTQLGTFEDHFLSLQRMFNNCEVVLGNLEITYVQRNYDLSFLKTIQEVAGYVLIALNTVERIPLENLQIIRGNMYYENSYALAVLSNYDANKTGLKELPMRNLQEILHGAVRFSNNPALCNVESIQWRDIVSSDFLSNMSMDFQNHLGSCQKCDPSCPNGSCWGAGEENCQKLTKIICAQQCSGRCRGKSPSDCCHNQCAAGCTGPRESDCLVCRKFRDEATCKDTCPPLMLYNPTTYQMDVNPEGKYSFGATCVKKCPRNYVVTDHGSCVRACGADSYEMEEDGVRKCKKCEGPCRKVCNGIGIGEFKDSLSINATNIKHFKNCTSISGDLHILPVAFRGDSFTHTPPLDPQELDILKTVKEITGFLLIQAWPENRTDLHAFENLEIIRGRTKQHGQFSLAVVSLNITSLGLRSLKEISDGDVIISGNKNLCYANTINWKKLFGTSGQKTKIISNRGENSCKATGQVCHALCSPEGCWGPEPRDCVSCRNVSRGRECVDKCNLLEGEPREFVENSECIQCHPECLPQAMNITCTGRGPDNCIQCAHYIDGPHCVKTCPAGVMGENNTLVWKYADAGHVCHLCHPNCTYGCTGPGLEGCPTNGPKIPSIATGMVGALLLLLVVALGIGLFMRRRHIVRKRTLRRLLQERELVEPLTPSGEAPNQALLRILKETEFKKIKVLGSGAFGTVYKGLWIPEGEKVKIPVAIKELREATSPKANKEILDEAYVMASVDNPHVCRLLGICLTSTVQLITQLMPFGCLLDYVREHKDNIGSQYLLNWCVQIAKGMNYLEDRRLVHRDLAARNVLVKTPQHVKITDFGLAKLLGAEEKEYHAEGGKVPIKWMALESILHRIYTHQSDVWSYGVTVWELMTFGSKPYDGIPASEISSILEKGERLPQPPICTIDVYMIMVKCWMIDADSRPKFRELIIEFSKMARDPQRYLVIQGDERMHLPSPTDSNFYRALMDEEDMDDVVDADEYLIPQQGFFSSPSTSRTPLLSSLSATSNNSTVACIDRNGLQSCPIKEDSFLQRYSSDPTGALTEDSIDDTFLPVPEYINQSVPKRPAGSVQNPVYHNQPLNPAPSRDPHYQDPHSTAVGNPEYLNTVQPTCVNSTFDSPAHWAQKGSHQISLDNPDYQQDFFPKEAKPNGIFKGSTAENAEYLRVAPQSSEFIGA

`C#CCOc1ccc(Nc2ncc(Cl)c(Nc3ccccc3NC(=O)C=C)n2)c(OC)c1` [Compound 6] was tested, and the “CD11b-positive cells (%)” value [1] was 93.1005% and 92.0572% and 93.2155%, the inhibition at 1 µM [2, 13] was 37% and the “Inhibition at 1 µM (%)” value ([2]; AURKB (Aurora B), 1 µM, ZLYTE, ATP Km app, listed as WEL028, 1 µM) was 32%. For the same molecule, the inhibition at 1 µM ([2]; read-out: Inhibition at 1 µM (%), AURKB (Aurora B), 1 µM, ZLYTE, ATP Km app) was 41%, the inhibition at 1 µM ([3]; 1 h) was -1% and the inhibition at 1 µM ([3]; read-out: Inhibition at 1 µM (%)) was -1%. The “Inhibition (%)” value ([4]; 1 μM WEL028, 1 h preincubation) was 6%, the “Inhibition at 1 µM (%)” value ([4]; EGFR (ErbB1), 1 µM, ZLYTE, ATP Km app, listed as WEL028, 1 µM) was 8% and the inhibition at 1 µM ([4]; read-out: Inhibition at 1 µM (%), EGFR (ErbB1), 1 µM, ZLYTE, ATP Km app) was 4%. For the same molecule, the inhibition at 1 µM [5, 13] was 9%, the “Inhibition at 1 µM (%)” value ([5]; EPHA3, 1 µM, LanthaScreen Binding, listed as WEL028, 1 µM) was 8% and the inhibition at 1 µM ([5]; read-out: Inhibition at 1 µM (%), EPHA3, 1 µM, LanthaScreen Binding) was 10%. For the same molecule, the inhibition at 1 µM [6, 13] was 4%, the “Inhibition at 1 µM (%)” value ([6]; MAP3K10 (MLK2), 1 µM, LanthaScreen Binding, listed as WEL028, 1 µM) was 5% and the inhibition at 1 µM ([6]; read-out: Inhibition at 1 µM (%), MAP3K10 (MLK2), 1 µM, LanthaScreen Binding) was 4%. For the same molecule, the “Inhibition at 1 µM (%)” value ([7]; MAP3K11 (MLK3), LanthaScreen Binding, listed as WEL028, 1 µM) was 6%, the inhibition at 1 µM ([7]; read-out: Inhibition at 1 µM (%), MAP3K11 (MLK3), LanthaScreen Binding) was 7% and the inhibition at 1 µM [8, 13] was 7%. The “Inhibition at 1 µM (%)” value ([8]; PI4KA (PI4K alpha), 1 µM, Adapta, ATP 10, listed as WEL028, 1 µM) was 3% and 11%, the inhibition at 1 µM [9] was 0% and the “Inhibition at 1 µM (%)” value [10] was 2%. The “Inhibition at 1 µM (%)” value ([10]; listed as WEL028, 1 µM) was 5%, the inhibition at 1 µM [10, 13] was 3% and the “Inhibition at 1 µM (%)” value ([11]; 1 µM, ZLYTE, ATP Km app, listed as WEL028, 1 µM) was 8%. The inhibition at 1 µM [11, 13] was 9%, the inhibition at 1 µM ([11]; read-out: Inhibition at 1 µM (%), 1 µM, ZLYTE, ATP Km app) was 10% and the inhibition at 1 µM [12, 13] was 1%. The inhibition at 1 µM ([12]; read-out: Inhibition at 1 µM (%), 1 µM, LanthaScreen Binding) was 2%.
